# Laboratory results taken from publication PMC9121441 (Molecular pharmaceutics, 2019).
# Where two headings read alike, the source gives them in different places.
# Tests used:
# CYP2B6 [1] = target: T1, CYP2B6 (Homo sapiens, UniProt P20813); experiment: Ketamine demethylation measured by norketamine formation; type: in vitro ADME; conditions: for Km at 10 min: human, pH 7.4, Km
# T1 sequence (P20813 1-491): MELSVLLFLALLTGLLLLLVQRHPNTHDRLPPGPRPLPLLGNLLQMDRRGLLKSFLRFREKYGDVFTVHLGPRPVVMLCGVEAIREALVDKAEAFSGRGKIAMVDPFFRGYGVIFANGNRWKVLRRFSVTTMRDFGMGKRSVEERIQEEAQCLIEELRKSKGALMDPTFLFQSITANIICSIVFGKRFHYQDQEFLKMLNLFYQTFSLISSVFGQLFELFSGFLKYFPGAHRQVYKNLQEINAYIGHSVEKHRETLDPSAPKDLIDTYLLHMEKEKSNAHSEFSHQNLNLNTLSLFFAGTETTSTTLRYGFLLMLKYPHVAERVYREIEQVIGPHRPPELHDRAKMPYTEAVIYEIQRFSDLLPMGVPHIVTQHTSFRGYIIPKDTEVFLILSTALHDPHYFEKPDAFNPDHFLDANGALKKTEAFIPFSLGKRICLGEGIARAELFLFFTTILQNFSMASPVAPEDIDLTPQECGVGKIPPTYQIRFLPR
# CYP2B6 [2] = target: T1, CYP2B6; experiment: Ketamine demethylation measured by formaldehyde formation; conditions: product formaldehyde
# CYP2B6 [3] = target: T1, CYP2B6; conditions: human liver microsomes; cited from earlier work
# [4] = oral ketamine, first-pass metabolism; cited from earlier work
# [5] = N-demethylation, product R-norketamine
# [6] = N-demethylation, product S-norketamine
structure (smiles),measurement,setting,value
CN[C@@]1(c2ccccc2Cl)CCCCC1=O [R-ketamine],Km,CYP2B6 [1]; [5],11 ± 1 µM
same,Vmax,CYP2B6 [1]; [5],65 ± 1 pmol・min^−1・pmol CYP^−1
same,Clint,"CYP2B6 [1]; Vmax/Km, product R-norketamine",5.7 ml・min^–1・nmol P450^–1
same,Vmax,CYP2B6 [2]; N-demethylation,92 ± 2 pmol・min^−1・pmol CYP^−1
same,Clint,CYP2B6 [2]; in vitro intrinsic clearance Vmax/Km,6.2 ml・min^–1・nmol P450^–1
CN[C@]1(c2ccccc2Cl)CCCCC1=O [S-ketamine],Km at 10 min,CYP2B6 [1]; [6],10 ± 1 µM
same,Km,CYP2B6 [3],44 µM
"CNC1(c2ccccc2Cl)CCCCC1=O (stereo not shown) [ketamine, 2-(2-chlorophenyl)-2-(methylamino)cyclohexan-1-one]",Km at 10 min,CYP2B6 [1]; [5],4 ± 1 µM
same,Km at 10 min,CYP2B6 [1]; [6],5 ± 1 µM
same,oral bioavailability,[4],15%
